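96-well plates; 48 h exposure; 5 concentrations. Endpoints by linear interpolation between flanking doses. Not reached: highest tested concentration assigned. Here, GI50 denotes the concentration required for 50% inhibition of growth.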 Calls of active or inactive are those of the source. Rule as the data show it: active = GI50 up to about 1.1 µM and inactive = higher.
Columns and labels:
Assay in all cases: NCI tumour cell line growth inhibition, 48 h
A498 = test system: A498
ACHN = test system: ACHN
DU-145 = test system: DU-145
EKVX = test system: EKVX
HCT-116 = test system: HCT-116
HOP-92 = test system: HOP-92
HT-29 = test system: HT-29
Hs-578T = test system: Hs-578T
MCF7 = test system: MCF7
MDA-N = test system: MDA-N
MOLT-4 = test system: MOLT-4
NCI-H226 = test system: NCI-H226
OVCAR-5 = test system: OVCAR-5
RXF 393 = test system: RXF 393
SF-295 = test system: SF-295
SK-MEL-5 = test system: SK-MEL-5
SN12C = test system: SN12C
SW-620 = test system: SW-620
T47D = test system: T47D
UO-31 = test system: UO-31

Measured: GI50

Oc1c2ccccc2c2c3c(cccc13)N=N2 [SP-600125]
inactive: A498 7.03 µM | ACHN 6.64 µM | DU-145 28.2 µM | EKVX 20 µM | HCT-116 44.6 µM | HOP-92 37.6 µM | HT-29 25.9 µM | Hs-578T 55.1 µM | MCF7 49 µM | MDA-N 15 µM | MOLT-4 20.4 µM | NCI-H226 22.9 µM | OVCAR-5 24.4 µM | RXF 393 20.7 µM | SF-295 22.5 µM | SK-MEL-5 14.6 µM | SN12C 14.8 µM | SW-620 10.9 µM | T47D > 100 µM | UO-31 10.5 µM
